Reference: patent US20260132132A1, “3A,4,5,6-TETRAHYDRO-1 H-PYRAZOLO[3,4-C]PYRIDIN-7(7AH)-ONE DERIVATIVES AS FACTOR XIIA INHIBITORS” (KALVISTA PHARMACEUTICALS LIMITED, priority 2022, published 2026)

Columns and labels:
Type in all cases: biochemical
[1] = target: T1, Human Factor XIIa (hFXIIa) (Homo sapiens, UniProt P00748); assay: Determination of Human Factor XIIa (hFXIIa) inhibition, fluorogenic substrate IC50 assay; details: fluorogenic substrate H-DPro-Phe-Arg-AFC at Km, 25° C., read-out: Human FXIIa IC50
T1 construct: purchased Enzyme Research Laboratories
T1 sequence (P00748 373-615 limits assumed): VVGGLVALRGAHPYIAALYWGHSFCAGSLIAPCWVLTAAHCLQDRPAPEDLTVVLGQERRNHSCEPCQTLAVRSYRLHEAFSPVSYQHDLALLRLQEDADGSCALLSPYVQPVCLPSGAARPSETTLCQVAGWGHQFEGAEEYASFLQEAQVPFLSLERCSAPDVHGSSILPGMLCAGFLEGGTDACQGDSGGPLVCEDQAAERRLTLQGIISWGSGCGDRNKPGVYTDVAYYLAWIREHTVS
T1 sequence (P00748 20-372 partner limits assumed): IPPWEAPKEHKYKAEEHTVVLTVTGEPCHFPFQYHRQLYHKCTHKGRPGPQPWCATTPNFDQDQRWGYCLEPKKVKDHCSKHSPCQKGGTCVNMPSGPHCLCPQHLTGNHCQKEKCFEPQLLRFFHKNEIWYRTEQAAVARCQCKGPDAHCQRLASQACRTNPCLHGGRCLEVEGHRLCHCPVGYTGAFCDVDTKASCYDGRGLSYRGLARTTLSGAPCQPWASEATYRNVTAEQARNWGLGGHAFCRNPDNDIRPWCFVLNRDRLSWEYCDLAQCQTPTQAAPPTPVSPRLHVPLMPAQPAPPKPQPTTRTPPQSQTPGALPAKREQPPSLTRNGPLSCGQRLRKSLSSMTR
Method: Determination of Human Factor XIIa (hFXIIa) inhibition
The Km for the cleavage of the substrate by hFXIIa was determined by standard transformation of the Michaelis-Menten equation, with subsequent inhibition assays performed at substrate Km concentration.

FXa = FXa (Homo sapiens, UniProt P00742); assay: Related protease inhibition: FXa, fluorogenic substrate; details: fluorogenic substrate at Km, 25° C., H1-H3 = % activity at 40 μM; for activity at 40 µM: read-out: IC50 (human FXa) nM
FXa, sequence (P00742 235-488 limits assumed): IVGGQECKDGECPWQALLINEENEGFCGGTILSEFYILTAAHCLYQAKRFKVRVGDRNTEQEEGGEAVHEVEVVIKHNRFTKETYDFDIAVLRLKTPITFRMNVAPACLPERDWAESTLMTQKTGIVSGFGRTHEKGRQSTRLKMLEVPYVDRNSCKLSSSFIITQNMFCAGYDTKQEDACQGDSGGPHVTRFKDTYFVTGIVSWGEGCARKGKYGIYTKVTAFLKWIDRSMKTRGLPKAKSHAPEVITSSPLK
FXa, sequence (P00742 41-179 partner limits assumed): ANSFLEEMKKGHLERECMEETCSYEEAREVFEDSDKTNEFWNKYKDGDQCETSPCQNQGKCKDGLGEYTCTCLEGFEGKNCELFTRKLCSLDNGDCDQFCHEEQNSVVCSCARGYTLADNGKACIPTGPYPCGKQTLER
Method: (§1) Human serine protease enzyme Plasma Kallikrein, KLK1, FXa, Plasmin, Thrombin and Trypsin were assayed for enzymatic activity using an appropriate fluorogenic substrate at Km concentration, FXIa at fixed substrate concentration of 100 μM and various concentrations of the test compound.

Thrombin = Thrombin (Homo sapiens, UniProt P00734); assay: Related protease inhibition: Thrombin, fluorogenic substrate; details: fluorogenic substrate at Km, 25° C., H1-H3 = % activity at 40 μM; for activity at 40 µM: read-out: IC50 (human thrombin) nM
Method: as §1

Compound	IC50 [1] [nM]	activity at 40 µM (FXa) [%]	activity at 40 µM (Thrombin) [%]	IC50 (FXa) [µM]	IC50 (Thrombin) [µM]
CCNC(=O)c1nn(-c2cccc(Cl)c2)c2c1CCN(c1cccc(N3CCOCC3=O)c1)C2=O [Example 1426, 1-(3-chlorophenyl)-N-ethyl-7-oxo-6-(3-(3-oxomorpholino)phenyl)-4,5,6,7-tetrahydro-1H-pyrazolo[3,4-c]pyridine-3-carboxamide]	10000 to 40000	20 to 80	20 to 80	–	–
CCNC(=O)c1nn(-c2cccc(Cl)c2)c2c1CCN(c1cccc(N3CC4(COC4)CC3=O)c1)C2=O [Example 1428, 1-(3-chlorophenyl)-N-ethyl-7-oxo-6-(3-(7-oxo-2-oxa-6-azaspiro[3.4]octan-6-yl)phenyl)-4,5,6,7-tetrahydro-1H-pyrazolo[3,4-c]pyridine-3-carboxamide]	10000 to 40000	> 80	> 80	–	–
CCNC(=O)c1nn(-c2cccc(Cl)c2)c2c1CCN(c1cccc(N3CCC4(CC4)C3)c1)C2=O [Example 1430, 6-(3-(5-azaspiro[2.4]heptan-5-yl)phenyl)-1-(3-chlorophenyl)-N-ethyl-7-oxo-4,5,6,7-tetrahydro-1H-pyrazolo[3,4-c]pyridine-3-carboxamide]	3000 to 10000	> 80	> 80	–	–
CCNC(=O)c1nn(-c2cccc(Cl)c2)c2c1CCN(c1cccc(N3CC4CC4C3)c1)C2=O (stereo not drawn) [Example 1431, 6-(3-(3-azabicyclo[3.1.0]hexan-3-yl)phenyl)-1-(3-chlorophenyl)-N-ethyl-7-oxo-4,5,6,7-tetrahydro-1H-pyrazolo[3,4-c]pyridine-3-carboxamide]	10000 to 40000	< 20	20 to 80	–	–
CCNC(=O)c1nn(-c2cccc(Cl)c2)c2c1CCN(c1cccc(N3CCN(C)C(=O)C3)c1)C2=O [Example 1432, 1-(3-chlorophenyl)-N-ethyl-6-(3-(4-methyl-3-oxopiperazin-1-yl)phenyl)-7-oxo-4,5,6,7-tetrahydro-1H-pyrazolo[3,4-c]pyridine-3-carboxamide]	1000 to 3000	20 to 80	< 20	–	–
CCNC(=O)c1nn(-c2cccc(Cl)c2)c2c1CCN(c1ccc3c(c1)C(=O)N(C)C1CC3C1)C2=O [Example 1434, 1-(3-chlorophenyl)-N-ethyl-6-(2-methyl-1-oxo-2,3,4,5-tetrahydro-1H-3,5-methanobenzo[c]azepin-8-yl)-7-oxo-4,5,6,7-tetrahydro-1H-pyrazolo[3,4-c]pyridine-3-carboxamide]	1000 to 3000	20 to 80	20 to 80	–	–
CCNC(=O)c1nn(-c2cccc(Cl)c2)c2c1CCN(c1cccc(N3C4CCC3CN(C)C4)c1)C2=O [Example 1436, 1-(3-chlorophenyl)-N-ethyl-6-(3-(3-methyl-3,8-diazabicyclo[3.2.1]octan-8-yl)phenyl)-7-oxo-4,5,6,7-tetrahydro-1H-pyrazolo[3,4-c]pyridine-3-carboxamide]	3000 to 10000	> 80	> 80	–	–

Other lines, results leading:

IC50 [1] [nM]	activity at 40 µM (FXa) [%]	activity at 40 µM (Thrombin) [%]	IC50 (FXa) [µM]	IC50 (Thrombin) [µM]	Compound
300 to 1000	> 80	> 80	–	–	CN1CCc2ccc(N3CCc4c(C(=O)NC5CNCC5(F)F)nn(-c5cccc(Cl)c5)c4C3=O)cc2C1=O (stereo not drawn) [Example 1425, 1-(3-chlorophenyl)-N-(4,4-difluoropyrrolidin-3-yl)-6-(2-methyl-1-oxo-1,2,3,4-tetrahydroisoquinolin-7-yl)-7-oxo-4,5,6,7-tetrahydro-1H-pyrazolo[3,4-c]pyridine-3-carboxamide]
300 to 1000	> 80	> 80	–	–	CN1CCc2ccc(N3CCc4c(C(=O)NCC5(N)CC5)nn(-c5cccc(Cl)c5)c4C3=O)cc2C1=O [Example 1427, N-((1-aminocyclopropyl)methyl)-1-(3-chlorophenyl)-6-(2-methyl-1-oxo-1,2,3,4-tetrahydroisoquinolin-7-yl)-7-oxo-4,5,6,7-tetrahydro-1H-pyrazolo[3,4-c]pyridine-3-carboxamide]
300 to 1000	20 to 80	20 to 80	–	–	CCNC(=O)c1nn(-c2cccc(Cl)c2)c2c1CCN(c1ccc3c(c1)N(C(C)=O)CC31CC1)C2=O [Example 1429, 6-(1′-acetylspiro[cyclopropane-1,3′-indolin]-6′-yl)-1-(3-chlorophenyl)-N-ethyl-7-oxo-4,5,6,7-tetrahydro-1H-pyrazolo[3,4-c]pyridine-3-carboxamide]
300 to 1000	20 to 80	> 80	–	–	CCNC(=O)c1nn(-c2cccc(Cl)c2)c2c1CCN(c1cc(N3C(=O)CC4CC43)ccc1F)C2=O (stereo not drawn) [Example 1433, 1-(3-chlorophenyl)-N-ethyl-6-(2-fluoro-5-(3-oxo-2-azabicyclo[3.1.0]hexan-2-yl)phenyl)-7-oxo-4,5,6,7-tetrahydro-1H-pyrazolo[3,4-c]pyridine-3-carboxamide]
100 to 300	> 80	> 80	–	–	CCNC(=O)c1nn(-c2cccc(Cl)c2)c2c1CCN(c1cc3c(cc1F)OCCN(C)C3=O)C2=O [Example 1435, 1-(3-chlorophenyl)-N-ethyl-6-(8-fluoro-4-methyl-5-oxo-2,3,4,5-tetrahydrobenzo[f][1,4]oxazepin-7-yl)-7-oxo-4,5,6,7-tetrahydro-1H-pyrazolo[3,4-c]pyridine-3-carboxamide]
100 to 300	> 80	> 80	–	–	CN1CCc2ccc(N3CCc4c(C(=O)NC5COCC56CC6)nn(-c5cccc(Cl)c5)c4C3=O)cc2C1=O (stereo not drawn) [Example 1438, 1-(3-chlorophenyl)-6-(2-methyl-1-oxo-1,2,3,4-tetrahydroisoquinolin-7-yl)-7-oxo-N-(5-oxaspiro[2.4]heptan-7-yl)-4,5,6,7-tetrahydro-1H-pyrazolo[3,4-c]pyridine-3-carboxamide]
1 to 10	–	–	10 to 40	1 to 3	Cc1cc(CNC(=O)c2nn(-c3cc(Cl)cc(CN)c3)c3c2CCN(c2ccc4c(c2)C(=O)N(C)CC4)C3=O)nn1C [Example 2017, 1-(3-(Aminomethyl)-5-chlorophenyl)-N-((1,5-dimethyl-1H-pyrazol-3-yl)methyl)-6-(2-methyl-1-oxo-1,2,3,4-tetrahydroisoquinolin-7-yl)-7-oxo-4,5,6,7-tetrahydro-1H-pyrazolo[3,4-c]pyridine-3-carboxamide]
10 to 100	–	–	> 40	10 to 40	CN1CCc2ccc(N3CCc4c(C(=O)NCC5CC5)nn(-c5cc(Cl)cc(CN)c5)c4C3=O)cc2C1=O [Example 2018, 1-(3-(aminomethyl)-5-chlorophenyl)-N-(cyclopropylmethyl)-6-(2-methyl-1-oxo-1,2,3,4-tetrahydroisoquinolin-7-yl)-7-oxo-4,5,6,7-tetrahydro-1H-pyrazolo[3,4-c]pyridine-3-carboxamide]
100 to 300	–	–	10 to 40	10 to 40	CN1CCc2ccc(N3CCc4c(C(=O)NCC5CC5)nn(-c5cccc(CN)c5)c4C3=O)cc2C1=O [Example 2019, 1-(3-(aminomethyl)phenyl)-N-(cyclopropylmethyl)-6-(2-methyl-1-oxo-1,2,3,4-tetrahydroisoquinolin-7-yl)-7-oxo-4,5,6,7-tetrahydro-1H-pyrazolo[3,4-c]pyridine-3-carboxamide]
